# Measured values from EP2408450B1, “ALPHA-(N-SULFONAMIDO)ACETAMIDE COMPOUND AS AN INHIBITOR OF BETA AMYLOID PEPTIDE PRODUCTION” (Bristol-Myers Squibb Company, priority 2009, dated 2010).
# Assays:
# [1] = tested on: γ-secretase inhibitor binding sites in the brain; assay: Gamma-secretase site occupancy in rat brain sections; format: in vivo
# Experimental: Female Harlan Sprague-Dawley rats (∼200 - 250 g) were dosed daily by oral gavage with a dosing vehicle of 99% PEG-400, 1% Tween-80 at 4 mL/kg in the morning. […] All procedures were done in concordance with ACUC guidelines. […] Plasma was obtained after centrifugation. […] CSF samples were centrifuged to remove cells or debris prior to dilution at 1:2 in 4% BSA and frozen for subsequent analysis.
# Brain sections were cut coronally at a thickness of 20 µm on a cryostat and thaw-mounted onto Superfrost Plus slides. Sections were saved at the level of the rostral hippocampus, with 3 sections per slide at intervals of about 120 µm, and frozen at -20°C until use. For occupancy studies, brain sections were warmed to room temperature, dried, incubated for 10 minutes in 50 mM HEPES buffer, pH 7.4, then transferred to the same buffer containing 1.5 nM [^3H]IN973 (Goldstein, M.E. et al., J. Pharmacol. Exp. Ther., 323:102-108 (2007)) or [^3H] (R)-4-((N-(1-amino-4-methyl-1-oxopentan-2-yl)-4-chlorophenylsulfonamido)methyl)-N-(2-methoxyethyl)benzamide and incubated at room temperature for 10 minutes. To define nonspecific binding, adjacent sections were incubated in buffer containing [^3H]IN973 or [^3H] (R)-4-((N-(1-amino-4-methyl-1-oxopentan-2-yl)-4-chlorophenylsulfonamido)methyl)-N-(2-methoxyethyl)benzamide, but including unlabeled γ-secretase inhibitor at 0.5 µM. After the incubation, the slides were washed three times for 2 minutes each in ice-cold PBS, pH 7.2, dipped in ice-cold distilled water, and dried with a fan blowing cool air. The slides were placed under tritium-sensitive phosphor storage screens (Amersham Biosciences, Arlington Heights, IL) and exposed in the dark for 7 days. Images were acquired from the phosphor storage screens using a Cyclone phosphor scanner (Packard, Meriden, CT) and OptiQuant acquisition and analysis software (Packard). Optical densities (expressed as digital light units per square millimeter) over areas of interest were measured and expressed as a percent of vehicle control.
# CSF Aβ40 = assay: Rat CSF Aβ40 assay (4G8-TSD ELISA); format: in vivo; details: acute rat studies; read-out: ED50 for reduction of CSF Aβ40
# Description: As a result of these sequence differences, antibodies that recognize the N-terminal region of human Aβ, such as 26D6, bind weakly to rodent Aβ. […] Table 1: Summary of Antibody Pairs Used to Assay In vivo Samples Each of these assays was validated using several methods. […] The optimized and validated Aβ assays still contained a small amount of the signal (5-20% of vehicle control) which could not be depleted by anti-Aβ antibodies or treatment with γ-secretase inhibitors. […] Female Harlan Sprague-Dawley rats (∼200 - 250 g) were dosed daily by oral gavage with a dosing vehicle of 99% PEG-400, 1% Tween-80 at 4 mL/kg in the morning. […] All procedures were done in concordance with ACUC guidelines. […] Plasma was obtained after centrifugation. […] CSF samples were centrifuged to remove cells or debris prior to dilution at 1:2 in 4% BSA and frozen for subsequent analysis. […] Plates were coated with TSD antibody and washed as for the brain Aβ40 assay. CSF samples were diluted 1:10 in PBS, pH 7.8, 0.1 % Tween-20. At time of collection, CSF was previously diluted 1:2 in 4% BSA in water. […] Samples were detected using 4G8-biotin (Signet) diluted 1:8000 in PBS, 0.05% Tween, 0.1% BSA for 1 hour.
compound,measurement,setting,value
"NC(=O)[C@@H](CCC(F)(F)F)N(Cc1ccc(-c2ncon2)cc1F)S(=O)(=O)c1ccc(Cl)cc1 [(2R)-2-[[(4-chlorophenyl)sulfonyl][[2-fluoro-4-(1,2,4-oxadiazol-3-yl)phenyl]methyl]amino]-5,5,5-trifluoropentanamide]",site occupancy,"[1]; single dose 1 mg/kg, by 24 hours",gradually returned to baseline values
same,brain γ-secretase binding sites occupied,"[1]; single dose 1 mg/kg, two hours after dose",75%
same,γ-secretase inhibitor binding sites in the brain occupied,"[1]; single dose 10 mg/kg, 24 hr timepoint",88%
same,γ-secretase inhibitor binding sites in the brain occupied,"[1]; single dose 10 mg/kg, all but the 24 hr timepoint",greater than 94%
same,γ-secretase inhibitor binding sites in the brain occupied,"[1]; single dose 100 mg/kg, throughout the dosing interval",greater than 94%
same,ED50,CSF Aβ40,1 to 10 mg/kg
